{"source": "paper PMC6219668", "about": "(Oncotarget, 2018)", "key": {"[1]": {"system": "SNU-387", "assay": "cells", "format": "cell-based", "details": "Homo sapiens, SNU-387, 72 h"}, "[2]": {"system": "TE-14", "assay": "cells", "format": "cell-based", "details": "TE-14, 72 h"}, "[3]": {"system": "HCC-4006", "assay": "cells", "format": "cell-based", "details": "Homo sapiens, HCC4006; HCC-4006, 72 h"}, "[4]": {"system": "COR-L105", "assay": "cells", "format": "cell-based", "details": "Homo sapiens, COR-L105, 72 h"}, "[5]": {"system": "HPAX1317", "format": "in vivo", "details": "HPAX1317, Pancreatic, Rb present; 250 mg/kg qd"}, "[6]": {"system": "TE-11", "assay": "cells", "format": "cell-based", "details": "Homo sapiens, TE-11, 72 h"}, "[7]": {"system": "SK-N-SH", "assay": "cells", "format": "cell-based", "details": "Homo sapiens, 72 h"}, "[8]": {"system": "HCC-827", "assay": "cells", "format": "cell-based", "details": "Homo sapiens, HCC827; HCC-827, 72 h"}, "[9]": {"system": "HBCx-16", "format": "in vivo", "details": "HBCx-16, Breast, HER2High, Rb present; 125 mg/kg bid × 21"}, "[10]": {"system": "SNU-387", "assay": "cells", "format": "cell-based", "details": "Homo sapiens, SNU-387, 72 h", "remark": "listed apart in the source"}, "[11]": {"system": "HPAX1199", "format": "in vivo", "details": "HPAX1199, Pancreatic, Rb present; 250 mg/kg qd"}, "[12]": {"system": "NCI-H1975", "assay": "cells", "format": "cell-based", "details": "Homo sapiens, NCI-H1975, 72 h"}, "[13]": {"system": "NCI-H460", "assay": "cells", "format": "cell-based", "details": "Homo sapiens, NCI-H460, 72 h"}, "[14]": {"system": "TE-5", "assay": "cells", "format": "cell-based", "details": "Homo sapiens, TE-5, 72 h"}, "[15]": {"system": "WBCs and ANC", "assay": "Blood counts in JeKo-1 rat model", "format": "in vivo", "details": "all treatment groups compared with vehicle", "excerpt": "To further characterize the pharmacokinetic/pharmacodynamic (PK/PD) relationship and simultaneously compare antitumor effects with white blood cell (WBC) counts in host animals, we used the JeKo-1 xenograft model in nude rats. […]. We observed dose-proportional increases in both drug exposure and target inhibition (Supplementary Table 5). […]. This dose-proportional target inhibition correlated with dose-dependent antitumor efficacy in the same JeKo-1 xenograft model."}, "[16]": {"system": "UACC-62", "assay": "cells", "format": "cell-based", "details": "Homo sapiens, UACC-62, 72 h"}, "[17]": {"system": "KYSE30", "assay": "cells", "format": "cell-based", "details": "Homo sapiens, KYSE-30; KYSE30, 72 h"}, "[18]": {"system": "WM-115", "assay": "cells", "format": "cell-based", "details": "Homo sapiens, WM-115, 72 h"}, "[19]": {"system": "NCI-H1975", "assay": "cells", "format": "cell-based", "details": "Homo sapiens, NCI-H1975, read-out: Percent inhibition"}, "[20]": {"system": "NCI-H23", "assay": "cells", "format": "cell-based", "details": "Homo sapiens, NCI-H23, 72 h"}, "[21]": {"details": "humans, 600 mg once daily; data not shown; cited from earlier work"}, "[22]": {"system": "T-47d", "assay": "cells", "format": "cell-based", "details": "Homo sapiens, T47D, 72 h"}, "[23]": {"system": "NCI-H441", "assay": "cells", "format": "cell-based", "details": "Homo sapiens, NCI-H441, 72 h"}, "[24]": {"system": "SK-MEL-28", "assay": "cells", "format": "cell-based", "details": "Homo sapiens, SK-MEL-28, 72 h"}, "[25]": {"system": "CDK1/cyclin B", "details": "cited from earlier work"}, "[26]": {"system": "NB1", "assay": "cells", "format": "cell-based", "details": "Homo sapiens, NB1, 72 h"}, "[27]": {"system": "SK-MEL-28", "assay": "cells", "format": "cell-based", "details": "Homo sapiens, SK-MEL-28, 72 h", "remark": "listed apart in the source"}, "[28]": {"system": "JeKo-1 xenograft", "format": "in vivo", "details": "for tumor response: qd, po"}, "[29]": {"system": "NCI-H2030", "assay": "cells", "format": "cell-based", "details": "Homo sapiens, NCI-H2030, 72 h"}, "[30]": {"system": "HBCx-1", "format": "in vivo", "details": "HBCx-1, Breast, HER2High, Rb absent; 125 mg/kg bid × 21"}, "[31]": {"system": "NCI-H23", "assay": "cells", "format": "cell-based", "details": "Homo sapiens, NCI-H23, 72 h", "remark": "listed apart in the source"}, "[32]": {"system": "hs944T", "assay": "cells", "format": "cell-based", "details": "72 h"}, "[33]": {"system": "NCI-H1792", "assay": "cells", "format": "cell-based", "details": "Homo sapiens, NCI-H1792, 72 h"}, "[34]": {"system": "CHP-212", "assay": "cells", "format": "cell-based", "details": "Homo sapiens, CHP-212, 72 h"}, "[35]": {"system": "NCI-H3122", "assay": "cells", "format": "cell-based", "details": "Homo sapiens, NCI-H3122, 72 h"}, "[36]": {"system": "HMEX1906", "format": "in vivo", "details": "mouse, in vivo, 250 mg/kg", "method": "Animals were housed in a temperature-\nIn all studies, tumor volume was calculated\nFor using the following formula: (length × width2)/2. Percent\nData are presented as the percent"}, "[37]": {"system": "LnCAP", "assay": "cells", "format": "cell-based", "details": "Homo sapiens, 72 h"}, "[38]": {"system": "NCI-H441", "assay": "cells", "format": "cell-based", "details": "Homo sapiens, NCI-H441, 72 h", "remark": "listed apart in the source"}, "[39]": {"system": "SEM cells", "assay": "cells", "format": "cell-based", "details": "ALL, dominant CDK6, read-out: IC50, mean ± SD"}, "[40]": {"system": "Pfeiffer", "assay": "cells", "format": "cell-based", "details": "Homo sapiens, DLBCL, dominant CDK6, read-out: IC50, mean ± SD"}}, "note": "“And” between values parts separate entries of the source, which are not always exact repeats. Equal entries are not always repeated. Where two headings read alike, the source gives them in different places."}
{"smiles": "CN(C)C(=O)c1cc2cnc(Nc3ccc(N4CCNCC4)cn3)nc2n1C1CCCC1", "note": "[Ribociclib, 7-cyclopentyl-2-(5-piperazin-1-yl-pyridin-2-ylamino)-7H-pyrrolo[2,3-d]pyrimidine-6-carboxylic acid dimethylamide]", "values": [{"measurement": "IC50", "setting": "[1]", "result": "> 10", "unit": "µM"}, {"measurement": "IC50", "setting": "[2]", "result": "> 10", "unit": "µM"}, {"measurement": "IC50", "setting": "[3]", "result": "> 10", "unit": "µM"}, {"measurement": "IC50", "setting": "[4]", "result": 1.92, "unit": "µM"}, {"measurement": "T/C", "setting": "[5]", "result": 32}, {"measurement": "IC50", "setting": "[6]", "result": 4.41, "unit": "µM"}, {"measurement": "IC50", "setting": "[7]", "result": 9, "unit": "µM"}, {"measurement": "IC50", "setting": "[8]", "result": "> 10", "unit": "µM"}, {"measurement": "T/C", "setting": "[9]", "result": 71}, {"measurement": "IC50", "setting": "[10]", "result": 2.49, "unit": "µM"}, {"measurement": "T/C", "setting": "[11]", "result": 18}, {"measurement": "IC50", "setting": "[12]", "result": 3.53, "unit": "µM"}, {"measurement": "IC50", "setting": "[13]", "result": 0.62, "unit": "µM"}, {"measurement": "IC50", "setting": "[14]", "result": "> 10", "unit": "µM"}, {"measurement": "absolute neutrophil counts", "setting": "[15]", "result": "reduced"}, {"measurement": "total WBC counts", "setting": "[15]", "result": "reduced"}, {"measurement": "IC50", "setting": "[16]", "result": "> 10", "unit": "µM"}, {"measurement": "IC50", "setting": "[17]", "result": "> 10", "unit": "µM"}, {"measurement": "IC50", "setting": "[18]", "result": "> 10", "unit": "µM"}, {"measurement": "inhibition at 0.08 µM", "setting": "[19]", "result": 14, "unit": "%"}, {"measurement": "inhibition at 1.25 µM", "setting": "[19]", "result": 42, "unit": "%"}, {"measurement": "inhibition at 5 µM", "setting": "[19]", "result": 54, "unit": "%"}, {"measurement": "inhibition at 10 µM", "setting": "[19]", "result": 61, "unit": "%"}, {"measurement": "inhibition at […]", "setting": "[19]", "result": "20% and 28% and 37% and 49%"}, {"measurement": "IC50", "setting": "[20]", "result": "> 10", "unit": "µM"}, {"measurement": "area under the concentration-time curve", "setting": "[21]", "result": "~22,000 ng/mL × h"}, {"measurement": "maximum serum concentration", "setting": "[21]", "result": "~1700", "unit": "ng/mL"}, {"measurement": "IC50", "setting": "[22]", "result": "> 10", "unit": "µM"}, {"measurement": "IC50", "setting": "[23]", "result": 4.74, "unit": "µM"}, {"measurement": "IC50", "setting": "[24]", "result": "> 10", "unit": "µM"}, {"measurement": "activity against CDK1/cyclin B", "setting": "[25]", "result": "far less active"}, {"measurement": "IC50", "setting": "[26]", "result": 1.6, "unit": "µM"}, {"measurement": "IC50", "setting": "[27]", "result": 0.98, "unit": "µM"}, {"measurement": "tumor response", "setting": "[28]; 75 mg/kg", "result": "complete tumor regression"}, {"measurement": "tumor response", "setting": "[28]; 150 mg/kg", "result": "complete tumor regression"}, {"measurement": "tumor growth inhibition", "setting": "[28]; rat, in vivo", "result": 56, "unit": "%"}, {"measurement": "IC50", "setting": "[29]", "result": "> 10", "unit": "µM"}, {"measurement": "T/C", "setting": "[30]", "result": 80}, {"measurement": "IC50", "setting": "[31]", "result": "> 10", "unit": "µM"}, {"measurement": "IC50", "setting": "[32]", "result": 1.62, "unit": "µM"}, {"measurement": "IC50", "setting": "[33]", "result": "> 10", "unit": "µM"}, {"measurement": "IC50", "setting": "[34]", "result": 0.28, "unit": "µM"}, {"measurement": "IC50", "setting": "[35]", "result": 0.51, "unit": "µM"}, {"measurement": "T/C", "setting": "[36]", "result": -12}, {"measurement": "IC50", "setting": "[37]", "result": 1, "unit": "µM"}, {"measurement": "IC50", "setting": "[38]", "result": "> 10", "unit": "µM"}]}
{"smiles": "CC(=O)c1c(C)c2cnc(Nc3ccc(N4CCNCC4)cn3)nc2n(C2CCCC2)c1=O", "note": "[Palbociclib, reference compound]", "values": [{"measurement": "IC50", "setting": "[39]", "result": "87 ± 28", "unit": "µM"}, {"measurement": "IC50", "setting": "[40]", "result": "89 ± 32", "unit": "µM"}]}
